Test results as given in ChEMBL document CHEMBL5291721, “A preclinical secondary pharmacology resource illuminates target-adverse drug reaction associations of marketed drugs” (Nat Commun, 2023).

Tests used:
[1] = target: T1, Muscarinic acetylcholine receptor M2 (Homo sapiens, UniProt P08172); format: functional, cell-based
T1 sequence (P08172 whole entry): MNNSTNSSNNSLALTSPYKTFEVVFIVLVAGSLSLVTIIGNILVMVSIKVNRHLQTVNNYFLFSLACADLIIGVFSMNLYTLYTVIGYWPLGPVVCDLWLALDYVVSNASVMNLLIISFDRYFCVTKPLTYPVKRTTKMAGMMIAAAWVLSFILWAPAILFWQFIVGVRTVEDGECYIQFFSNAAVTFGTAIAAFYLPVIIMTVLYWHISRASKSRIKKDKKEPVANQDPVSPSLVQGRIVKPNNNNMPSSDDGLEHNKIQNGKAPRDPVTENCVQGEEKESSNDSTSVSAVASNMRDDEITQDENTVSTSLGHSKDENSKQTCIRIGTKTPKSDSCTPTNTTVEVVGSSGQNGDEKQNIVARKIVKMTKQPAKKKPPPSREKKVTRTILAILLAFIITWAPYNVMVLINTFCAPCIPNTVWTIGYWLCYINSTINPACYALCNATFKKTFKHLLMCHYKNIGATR

Adenosine receptor A1 [2] = target: T2, Adenosine receptor A1 (Homo sapiens, UniProt P30542)
T2 sequence (P30542 whole entry): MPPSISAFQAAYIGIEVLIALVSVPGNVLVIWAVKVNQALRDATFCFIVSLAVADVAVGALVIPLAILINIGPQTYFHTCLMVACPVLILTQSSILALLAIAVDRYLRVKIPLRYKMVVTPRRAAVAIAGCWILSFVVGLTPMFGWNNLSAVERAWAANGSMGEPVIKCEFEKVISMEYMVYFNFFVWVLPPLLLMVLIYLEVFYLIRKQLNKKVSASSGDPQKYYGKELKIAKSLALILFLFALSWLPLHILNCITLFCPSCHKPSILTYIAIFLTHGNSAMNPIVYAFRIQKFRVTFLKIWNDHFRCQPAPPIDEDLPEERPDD

[3] = target: T3, Muscarinic acetylcholine receptor M1 (Homo sapiens, UniProt P11229); format: functional, cell-based
T3 sequence (P11229 whole entry): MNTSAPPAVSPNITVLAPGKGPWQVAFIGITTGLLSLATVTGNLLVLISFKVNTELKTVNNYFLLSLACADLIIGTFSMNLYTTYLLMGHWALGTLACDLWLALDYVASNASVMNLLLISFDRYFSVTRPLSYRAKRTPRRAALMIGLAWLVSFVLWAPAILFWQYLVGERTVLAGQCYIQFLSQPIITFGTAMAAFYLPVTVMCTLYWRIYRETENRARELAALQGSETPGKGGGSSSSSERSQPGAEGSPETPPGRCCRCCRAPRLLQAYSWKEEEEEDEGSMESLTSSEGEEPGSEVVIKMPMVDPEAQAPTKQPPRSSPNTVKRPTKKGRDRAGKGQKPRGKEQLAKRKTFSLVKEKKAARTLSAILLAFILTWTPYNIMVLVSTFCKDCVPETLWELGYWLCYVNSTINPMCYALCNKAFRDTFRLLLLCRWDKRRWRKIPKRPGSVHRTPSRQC

[4] = target: T4, Alpha-1A adrenergic receptor (Homo sapiens, UniProt P35348); format: functional, cell-based
T4 sequence (P35348 whole entry): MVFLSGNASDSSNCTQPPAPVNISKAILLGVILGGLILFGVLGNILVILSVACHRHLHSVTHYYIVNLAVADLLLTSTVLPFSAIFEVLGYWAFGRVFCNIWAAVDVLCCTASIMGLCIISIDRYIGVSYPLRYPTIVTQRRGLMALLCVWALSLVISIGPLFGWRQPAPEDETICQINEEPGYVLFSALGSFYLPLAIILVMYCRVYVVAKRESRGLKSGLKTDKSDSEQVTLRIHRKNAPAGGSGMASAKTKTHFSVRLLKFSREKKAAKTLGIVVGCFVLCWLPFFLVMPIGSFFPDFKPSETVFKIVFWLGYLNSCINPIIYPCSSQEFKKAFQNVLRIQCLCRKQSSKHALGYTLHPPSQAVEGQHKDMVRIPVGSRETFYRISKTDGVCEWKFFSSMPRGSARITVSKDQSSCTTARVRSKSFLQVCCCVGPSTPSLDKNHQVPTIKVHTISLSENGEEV

[5] = target: T4, Alpha-1A adrenergic receptor; format: functional, cell-based; remark: listed apart in the source
Adenosine receptor A1 [6] = target: T2, Adenosine receptor A1; remark: listed apart in the source
Cannabinoid receptor 1 = Cannabinoid receptor 1 (Homo sapiens, UniProt P21554)
Cannabinoid receptor 1, sequence (P21554 whole entry): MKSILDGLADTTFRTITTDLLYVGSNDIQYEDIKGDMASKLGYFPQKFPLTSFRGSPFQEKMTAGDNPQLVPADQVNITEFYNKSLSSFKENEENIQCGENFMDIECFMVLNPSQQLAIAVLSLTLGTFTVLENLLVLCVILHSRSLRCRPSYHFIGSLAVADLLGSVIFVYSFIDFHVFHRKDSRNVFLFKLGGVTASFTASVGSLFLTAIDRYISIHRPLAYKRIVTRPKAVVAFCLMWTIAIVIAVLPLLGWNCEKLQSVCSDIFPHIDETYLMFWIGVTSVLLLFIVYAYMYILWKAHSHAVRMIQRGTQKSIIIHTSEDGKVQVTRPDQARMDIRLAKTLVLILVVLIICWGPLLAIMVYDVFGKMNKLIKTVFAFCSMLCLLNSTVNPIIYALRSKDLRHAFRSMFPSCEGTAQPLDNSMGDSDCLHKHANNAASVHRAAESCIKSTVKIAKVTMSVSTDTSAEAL

Vasopressin V1a receptor = Vasopressin V1a receptor (Homo sapiens, UniProt P37288)
Vasopressin V1a receptor, sequence (P37288 whole entry): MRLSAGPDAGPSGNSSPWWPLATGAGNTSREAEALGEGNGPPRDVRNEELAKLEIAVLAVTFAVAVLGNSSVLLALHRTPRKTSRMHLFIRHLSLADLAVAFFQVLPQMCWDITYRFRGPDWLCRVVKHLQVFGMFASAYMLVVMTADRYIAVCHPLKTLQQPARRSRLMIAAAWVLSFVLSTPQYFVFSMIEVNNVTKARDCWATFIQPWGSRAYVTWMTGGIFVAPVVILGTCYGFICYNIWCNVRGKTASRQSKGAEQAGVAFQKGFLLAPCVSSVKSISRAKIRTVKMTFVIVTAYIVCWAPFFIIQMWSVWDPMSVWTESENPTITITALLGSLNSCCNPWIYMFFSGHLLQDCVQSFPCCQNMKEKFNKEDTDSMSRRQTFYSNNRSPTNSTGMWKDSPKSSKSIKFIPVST

[7] = target: Voltage-dependent L-type calcium channel subunit alpha-1C (Rattus norvegicus, UniProt P22002); format: functional
Voltage-dependent L-type calcium channel subunit alpha-1C, sequence (P22002 whole entry): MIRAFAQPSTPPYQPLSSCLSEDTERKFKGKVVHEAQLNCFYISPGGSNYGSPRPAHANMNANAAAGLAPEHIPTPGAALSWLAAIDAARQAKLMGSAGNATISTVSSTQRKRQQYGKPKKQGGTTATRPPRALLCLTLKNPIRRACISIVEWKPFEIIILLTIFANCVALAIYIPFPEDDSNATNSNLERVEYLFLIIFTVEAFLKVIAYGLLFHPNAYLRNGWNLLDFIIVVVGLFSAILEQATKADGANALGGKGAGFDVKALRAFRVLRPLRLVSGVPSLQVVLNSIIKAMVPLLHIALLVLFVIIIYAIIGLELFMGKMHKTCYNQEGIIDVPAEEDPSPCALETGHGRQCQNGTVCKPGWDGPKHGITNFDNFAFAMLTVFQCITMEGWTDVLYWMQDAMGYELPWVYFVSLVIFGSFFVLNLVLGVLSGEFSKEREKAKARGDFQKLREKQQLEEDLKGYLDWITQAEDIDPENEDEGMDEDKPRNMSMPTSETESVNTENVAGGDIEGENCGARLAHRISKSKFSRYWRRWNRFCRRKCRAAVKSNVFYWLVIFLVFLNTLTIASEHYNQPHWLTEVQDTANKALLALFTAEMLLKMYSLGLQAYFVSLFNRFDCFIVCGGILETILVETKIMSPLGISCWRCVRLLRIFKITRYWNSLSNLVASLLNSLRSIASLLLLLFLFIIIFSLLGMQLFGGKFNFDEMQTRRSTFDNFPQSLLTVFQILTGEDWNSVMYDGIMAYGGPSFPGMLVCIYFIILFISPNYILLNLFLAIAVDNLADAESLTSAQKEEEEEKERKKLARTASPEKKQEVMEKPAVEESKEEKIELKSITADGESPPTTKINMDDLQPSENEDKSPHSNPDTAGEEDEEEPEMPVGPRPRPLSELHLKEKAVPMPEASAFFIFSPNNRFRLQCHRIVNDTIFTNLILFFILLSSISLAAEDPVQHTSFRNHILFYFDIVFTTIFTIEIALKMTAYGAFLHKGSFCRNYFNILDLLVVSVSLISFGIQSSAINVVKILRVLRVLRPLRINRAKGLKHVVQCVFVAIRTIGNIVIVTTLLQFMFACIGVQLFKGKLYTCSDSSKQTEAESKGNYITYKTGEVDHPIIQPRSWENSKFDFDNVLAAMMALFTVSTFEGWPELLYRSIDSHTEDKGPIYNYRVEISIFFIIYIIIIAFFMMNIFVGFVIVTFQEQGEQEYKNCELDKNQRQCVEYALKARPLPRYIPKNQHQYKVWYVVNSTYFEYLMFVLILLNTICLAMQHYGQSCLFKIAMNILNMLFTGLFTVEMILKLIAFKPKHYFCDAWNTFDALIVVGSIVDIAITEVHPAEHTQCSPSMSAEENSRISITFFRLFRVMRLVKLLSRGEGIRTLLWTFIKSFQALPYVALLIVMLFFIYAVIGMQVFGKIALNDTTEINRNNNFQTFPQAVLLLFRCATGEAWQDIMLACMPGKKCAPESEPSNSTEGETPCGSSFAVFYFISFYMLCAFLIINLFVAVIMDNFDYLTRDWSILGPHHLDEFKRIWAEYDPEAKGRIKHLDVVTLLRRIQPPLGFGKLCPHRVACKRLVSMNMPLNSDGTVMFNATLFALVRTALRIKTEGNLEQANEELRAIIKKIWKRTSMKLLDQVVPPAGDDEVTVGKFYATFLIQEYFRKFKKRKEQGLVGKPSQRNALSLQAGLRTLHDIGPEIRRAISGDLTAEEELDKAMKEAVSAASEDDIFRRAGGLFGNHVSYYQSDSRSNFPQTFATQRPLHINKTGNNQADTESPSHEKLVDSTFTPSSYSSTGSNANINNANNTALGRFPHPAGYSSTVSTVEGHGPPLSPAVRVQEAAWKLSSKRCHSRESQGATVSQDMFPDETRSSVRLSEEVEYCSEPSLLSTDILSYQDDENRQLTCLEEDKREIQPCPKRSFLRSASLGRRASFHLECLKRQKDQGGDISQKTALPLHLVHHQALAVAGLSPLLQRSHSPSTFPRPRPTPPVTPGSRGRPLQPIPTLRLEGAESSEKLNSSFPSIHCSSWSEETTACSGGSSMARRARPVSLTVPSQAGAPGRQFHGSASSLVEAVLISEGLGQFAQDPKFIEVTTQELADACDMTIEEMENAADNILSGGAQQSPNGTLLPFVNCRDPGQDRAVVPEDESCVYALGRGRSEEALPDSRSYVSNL

Endothelin-1 receptor = target: T5, Endothelin-1 receptor (Homo sapiens, UniProt P25101)
T5 sequence (P25101 whole entry): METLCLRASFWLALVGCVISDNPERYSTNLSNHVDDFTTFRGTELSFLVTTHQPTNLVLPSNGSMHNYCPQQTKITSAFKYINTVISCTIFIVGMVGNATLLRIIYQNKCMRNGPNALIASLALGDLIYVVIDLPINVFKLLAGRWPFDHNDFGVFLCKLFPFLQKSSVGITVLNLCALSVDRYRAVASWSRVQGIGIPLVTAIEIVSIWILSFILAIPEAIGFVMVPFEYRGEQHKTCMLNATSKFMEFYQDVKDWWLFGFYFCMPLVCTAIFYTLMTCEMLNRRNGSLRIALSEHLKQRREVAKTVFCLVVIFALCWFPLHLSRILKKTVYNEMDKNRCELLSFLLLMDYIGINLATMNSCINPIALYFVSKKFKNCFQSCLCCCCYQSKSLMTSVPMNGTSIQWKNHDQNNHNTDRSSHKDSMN

[8] = target: T6, 5-hydroxytryptamine receptor 1A (Homo sapiens, UniProt P08908); format: functional, cell-based
T6 sequence (P08908 whole entry): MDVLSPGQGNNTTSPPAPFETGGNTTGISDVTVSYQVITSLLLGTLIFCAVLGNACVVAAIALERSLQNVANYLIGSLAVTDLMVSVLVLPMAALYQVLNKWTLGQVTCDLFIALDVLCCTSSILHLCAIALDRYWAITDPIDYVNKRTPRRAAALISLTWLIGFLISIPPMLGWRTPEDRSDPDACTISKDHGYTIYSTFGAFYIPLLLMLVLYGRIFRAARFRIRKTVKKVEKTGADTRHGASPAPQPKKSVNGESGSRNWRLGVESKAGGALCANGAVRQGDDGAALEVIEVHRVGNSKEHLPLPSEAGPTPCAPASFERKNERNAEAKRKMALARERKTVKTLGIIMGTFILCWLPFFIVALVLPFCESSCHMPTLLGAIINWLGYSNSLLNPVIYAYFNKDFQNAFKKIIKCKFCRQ
Note: assay procedure not described here.

CO/N=C(\C(=O)N[C@@H]1C(=O)N2C(C(=O)[O-])=C(C[n+]3cccc4c3CCC4)CS[C@H]12)c1csc(N)n1 [CEFPIROME]
AC50 [1]: > 30 µM | AC50 (Adenosine receptor A1 [2]): > 30 µM | AC50 [3]: > 30 µM | AC50 [4]: > 30 µM | AC50 [5]: > 30 µM

C[C@@H](O)[C@H]1C(=O)N2C(C(=O)[O-])=C(SC3Cn4cnc[n+]4C3)[C@H](C)[C@H]12 (stereo partly drawn) [BIAPENEM]
AC50 (Adenosine receptor A1 [2]): > 30 µM | AC50 [3]: > 30 µM

CC(=O)OCC[N+](C)(C)C [ACETYLCHOLINE]
AC50 (Adenosine receptor A1 [6]): > 30 µM | AC50 (Adenosine receptor A1 [2]): > 30 µM | AC50 (Cannabinoid receptor 1): > 10 µM | AC50 [4]: > 30 µM | AC50 [5]: > 30 µM | AC50 (Vasopressin V1a receptor): > 30 µM | AC50 [7]: > 10 µM | AC50 (Endothelin-1 receptor): > 30 µM

Oc1c(I)cc(Cl)c2cccnc12 [CLIOQUINOL]
AC50 [8]: > 30 µM | AC50 (Adenosine receptor A1 [2]): > 30 µM | AC50 [4]: > 30 µM | AC50 [5]: > 30 µM

COCCCOc1ccnc(C[S+]([O-])c2nc3ccccc3[nH]2)c1C (stereo not drawn) [RABEPRAZOLE]
AC50 [8]: > 10 µM | AC50 [1]: > 10 µM | AC50 (Adenosine receptor A1 [6]): 22.5 µM | AC50 (Adenosine receptor A1 [2]): > 30 µM | AC50 (Cannabinoid receptor 1): > 10 µM | AC50 (Vasopressin V1a receptor): > 10 µM | AC50 [7]: > 10 µM | AC50 (Endothelin-1 receptor): > 30 µM

C[C@]1(COc2ccc(N3CCC(Oc4ccc(OC(F)(F)F)cc4)CC3)cc2)Cn2cc([N+](=O)[O-])nc2O1
AC50 (Adenosine receptor A1 [6]): > 30 µM | AC50 (Adenosine receptor A1 [2]): > 30 µM | AC50 [3]: > 30 µM | AC50 (Cannabinoid receptor 1): > 10 µM | AC50 (Vasopressin V1a receptor): > 10 µM | AC50 [7]: > 10 µM | AC50 (Endothelin-1 receptor): > 30 µM

CC[C@H]1OC(=O)[C@H](C)[C@@H](O[C@H]2C[C@@](C)(OC)[C@@H](O)[C@H](C)O2)[C@H](C)[C@@H](O[C@@H]2O[C@H](C)C[C@H](N(C)C)[C@H]2O)[C@](C)(OC)C[C@@H](C)C(=O)[C@H](C)[C@@H](O)[C@]1(C)O [CLARITHROMYCIN]
AC50 [1]: > 30 µM | AC50 (Adenosine receptor A1 [6]): > 30 µM | AC50 (Adenosine receptor A1 [2]): > 30 µM | AC50 [4]: > 30 µM | AC50 [5]: > 30 µM | AC50 (Vasopressin V1a receptor): > 30 µM | AC50 (Endothelin-1 receptor): > 30 µM

O=C(Nc1nc(-c2cc(Cl)cs2)c(N2CCN(C3CCCCC3)CC2)s1)c1cnc(N2CCC(C(=O)O)CC2)c(Cl)c1 [AVATROMBOPAG]
AC50 (Adenosine receptor A1 [6]): > 10 µM | AC50 (Adenosine receptor A1 [2]): > 30 µM | AC50 (Cannabinoid receptor 1): > 10 µM | AC50 (Vasopressin V1a receptor): > 10 µM | AC50 [7]: > 10 µM | AC50 (Endothelin-1 receptor): > 10 µM

C1CNCCN1 [PIPERAZINE]
AC50 (Adenosine receptor A1 [2]): > 30 µM | AC50 [3]: > 30 µM

Cc1nnc(SCC2=C(C(=O)O)N3C(=O)[C@@H](NC(=O)Cn4cc(Cl)c(=O)c(Cl)c4)[C@H]3SC2)s1 [CEFAZEDONE]
AC50 (Adenosine receptor A1 [2]): > 30 µM | AC50 [3]: > 30 µM

Nc1nc(N)nc(Nc2ccc([As]3SCC(CO)S3)cc2)n1 (stereo not drawn) [MELARSOPROL]
AC50 (Adenosine receptor A1 [2]): > 30 µM | AC50 [3]: 22.5 µM

CO[C@@]1(NC(=O)CSCC#N)C(=O)N2C(C(=O)O)=C(CSc3nnnn3C)CS[C@@H]21 [CEFMETAZOLE]
AC50 [8]: > 30 µM | AC50 [1]: > 30 µM | AC50 (Adenosine receptor A1 [2]): > 30 µM | AC50 [4]: > 30 µM | AC50 [5]: > 30 µM
